# In PMC5908160, “Inhibition of sperm motility in male macaques with EP055, a potential non-hormonal male contraceptive” (PLoS ONE, 2018):
# Experiment: EP055 testis, epididymis and plasma levels in cynomolgus males after i.v. infusion
# Assay type: in vivo, Macaca fascicularis
# Conditions: 63.25 mg/kg i.v.
# From the text: Evaluation of the effects of an i.v. infusion of EP055 on male cynomolgus macaque reproductive system was done by Sinclair Research Center, LLC. (Study No: S14574). This study was reviewed and approved by the Sinclair IUCAC committee and complied with all applicable sections of USDA Policy 12 and the Final Rules of the Animal Welfare Act regulation (9 CFR). This study used 6 naïve cynomolgus males (3-4 yrs old, 4 kg or less). Doses of EP055 in 5% DMSO-PBS, pH 7.6 or vehicle control were infused by i.v. at 63.25 mg/kg. The infusion rate was 4 ml/min. Plasma and tissues (epididymis and testis) were collected at 2 hr or 6 hr and immediately frozen on dry ice. Samples were stored at -80 °C until processing. Half-life was approximated using the 2 hr and 6 hr points and an estimation of the initial plasma level using the initial dose of […], the circulating blood volume of 65 ml/kg, average hematocrit of 41.7 (S2 Table) and average animal size (3.72 kg for n=4).
# Semen or tissue samples were thawed at room temperature. PBS at pH 7.6 was added to each sample at a ratio of 2:1 and sonicated in an ice chilled bath for 5 minutes before homogenization using a Polytron unit (Kinematica AG, Lucerne, Switzerland). An aliquot (25 uL) of each sample homogenate was processed as described for plasma samples.
compound,measurement,setting,value
COC(=O)NNc1nc(Nc2ccc(NC(C)=O)c(O)c2)nc(SCC(=O)O)n1 [EP055],epididymis versus testis level (ug/mg of tissue),2 and 6 hours,significantly (p < 0.05) more EP055 (ug/mg of tissue) in the epididymis after 2 hours but not after 6 hours
same,total amounts in testis versus epididymis,2 and 6 hours,not significantly different at 2 and 6 hours
same,presence in testis and epididymis,2 and 6 hours post-infusion,detected in testis and epididymis two hours and six hours post-infusion
same,half-life,"cynomolgus monkey, iv, extrapolated from 2 hr and 6 hr points and calculated initial plasma concentration, read-out: estimated plasma half-life (t1/2) in target tissue experiment",11.9 min
